# Reference: PubChem BioAssay (NCI)
#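 Following 48 hours of exposure in 96-well plates, responses at five concentrations were used to interpolate endpoints linearly. At the GI50, growth is halved. TGI: total growth inhibition.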
# Experiments:
# Test in all cases: NCI tumour cell line growth inhibition, 48 h
# OVCAR-8 ovarian = tested on: OVCAR-8 ovarian
# HT29 colon = tested on: HT29 colon
# M14 melanoma = tested on: M14 melanoma
# U251 CNS = tested on: U251 CNS
# HOP-92 NSCLC = tested on: HOP-92 NSCLC
# OVCAR-4 ovarian = tested on: OVCAR-4 ovarian
# TK-10 renal = tested on: TK-10 renal
# SNB-19 CNS = tested on: SNB-19 CNS
# OVCAR-3 ovarian = tested on: OVCAR-3 ovarian
# NCI-H226 lung = tested on: NCI-H226 lung
SMILES,TGI (OVCAR-8 ovarian),TGI (HT29 colon),TGI (M14 melanoma),TGI (U251 CNS),TGI (HOP-92 NSCLC),TGI (OVCAR-4 ovarian),TGI (TK-10 renal),TGI (SNB-19 CNS),TGI (OVCAR-3 ovarian),TGI (NCI-H226 lung),GI50 (OVCAR-8 ovarian),GI50 (HT29 colon),GI50 (M14 melanoma),GI50 (U251 CNS),GI50 (HOP-92 NSCLC),GI50 (OVCAR-4 ovarian),GI50 (TK-10 renal),GI50 (SNB-19 CNS),GI50 (OVCAR-3 ovarian),GI50 (NCI-H226 lung)
O=C(O)CCC(=O)N1c2ccccc2CC1c1c[nH]c2ccccc12 (centres undefined),> 100 µM,> 100 µM,> 100 µM,> 100 µM,> 100 µM,> 100 µM,> 100 µM,> 100 µM,> 100 µM,> 100 µM,,,,,,,,,,
COc1cc(/C=C\c2cc(OC)c(OC)c(OC)c2)cc(NC(=O)/C=C/c2cc(OC)c(OC)c(OC)c2)c1OC,> 100 µM,> 100 µM,> 100 µM,> 100 µM,> 100 µM,> 100 µM,> 100 µM,> 100 µM,> 100 µM,> 100 µM,6.68 µM,3.87 µM,3.78 µM,6.71 µM,4.68 µM,3.86 µM,6.72 µM,48.6 µM,10.8 µM,50 µM
CCN(Cc1ccc(Cl)cc1)c1ccc(CO)c(Cl)c1,21 µM,13.5 µM,20.2 µM,13 µM,11.1 µM,11.3 µM,0.379 µM,28.9 µM,5.75 µM,0.198 µM,3.62 µM,3.12 µM,4.43 µM,0.863 µM,1.52 µM,0.543 µM,0.0786 µM,13.1 µM,1.15 µM,0.063 µM
CCOC(=O)N1CCN(/[N+]([O-])=N/Oc2ccc([N+](=O)[O-])cc2[N+](=O)[O-])CC1,12.9 µM,15.7 µM,1.43 µM,21.5 µM,3.75 µM,1.78 µM,5.57 µM,20.7 µM,1.82 µM,16.7 µM,3.49 µM,0.322 µM,0.328 µM,1.55 µM,0.122 µM,0.438 µM,0.406 µM,6.68 µM,0.542 µM,3.77 µM
COC(=O)NC(=O)c1cn(C2OC(CO)C(O)C2O)c(=O)[nH]c1=O (centres undefined),> 100 µM,> 100 µM,> 100 µM,> 100 µM,> 100 µM,> 100 µM,> 100 µM,> 100 µM,> 100 µM,> 100 µM,,,,,,,,,,
CC1(C)O[C@H]2[C@H](O)C[C@](O)(CO)C[C@H]2O1,> 100 µM,> 100 µM,> 100 µM,> 100 µM,> 100 µM,> 100 µM,> 100 µM,> 100 µM,> 100 µM,> 100 µM,,,,,,,,,,
Oc1c(-c2nnc(-c3ccccc3Cl)o2)sc2nnc(-c3ccccc3)c(-c3ccccc3)c12,> 100 µM,20.8 µM,39.3 µM,> 100 µM,,> 100 µM,83.7 µM,> 100 µM,8 µM,> 100 µM,3.72 µM,4.06 µM,5 µM,2.31 µM,1.81 µM,4.49 µM,5.39 µM,4.37 µM,2.64 µM,16.1 µM
O=C(COc1ccc(Cl)cc1)N1N=C(c2ccc(Cl)cc2)CC1(O)c1ccccc1 (centres undefined),30 µM,26.3 µM,34.5 µM,38.3 µM,44.1 µM,21 µM,> 78 µM,> 100 µM,39.2 µM,48.1 µM,,,,,,,,,,
CCCCCCCCCCCc1nnc(N)o1,> 100 µM,> 100 µM,> 100 µM,> 100 µM,> 100 µM,> 100 µM,> 100 µM,50.7 µM,> 100 µM,> 100 µM,,,,,,,,,,
N=C1C(c2nc3ccccc3s2)=C(O)CN1c1ccc(F)c(Cl)c1,33.4 µM,> 100 µM,> 100 µM,23.2 µM,37.5 µM,> 100 µM,> 100 µM,85.7 µM,60.4 µM,55.4 µM,12.6 µM,28.9 µM,> 100 µM,5.76 µM,12 µM,20.5 µM,22.7 µM,21.5 µM,17.7 µM,6.11 µM
COC12C=C/C(=C(/C(=O)OCc3cncnc3)C(=O)CCCCCCCCC3(OC)C=C/C(=C(/C(=O)OCc4cncnc4)C(=O)CCCCCCCC1)O3)O2,> 50 µM,1.09 µM,1.61 µM,1.06 µM,2.18 µM,2.81 µM,1.93 µM,> 50 µM,1.07 µM,1.65 µM,0.207 µM,0.21 µM,0.167 µM,0.212 µM,1 µM,0.548 µM,0.689 µM,0.458 µM,0.195 µM,0.656 µM
CNC(=O)Nc1nc2ccc([N+](=O)[O-])cc2[nH]1,> 100 µM,> 100 µM,> 100 µM,> 100 µM,> 100 µM,> 100 µM,> 100 µM,> 100 µM,> 100 µM,> 100 µM,,,,,,,,,,
COc1cc(C(O)CCBr)c(OC)cc1C (centres undefined),> 46.8 µM,> 58.3 µM,33.9 µM,> 100 µM,> 100 µM,> 100 µM,> 100 µM,> 100 µM,44.1 µM,> 100 µM,,,,,,,,,,
CCOC(=O)c1c(C)nc2c(c1N)CC(=O)N2Cc1ccc(OC)cc1,> 100 µM,> 100 µM,> 100 µM,> 100 µM,6.5 µM,> 100 µM,> 100 µM,> 100 µM,> 100 µM,> 100 µM,5.42 µM,> 100 µM,> 100 µM,4.14 µM,2.29 µM,> 100 µM,5.12 µM,4.87 µM,6.24 µM,7.36 µM
CCN(CC)c1c(C(=O)/C=C/c2ccc(Cl)cc2)c(-c2ccccc2)nn(C)c1=O,3.1 µM,3.32 µM,4.01 µM,3.18 µM,4.33 µM,3.27 µM,4 µM,3.98 µM,4.35 µM,4.4 µM,,,,,,,,,,
C/C=C(\C)C(=O)NC1=CC[C@@]2(C)C(=CCC3C2CC[C@@]2(C)C3CC[C@@H]2C(C)N(C)C)C1=O (some centres undefined),> 77.9 µM,2.6 µM,3.44 µM,23.3 µM,14.8 µM,> 50.2 µM,32.4 µM,> 64.1 µM,12.8 µM,36.3 µM,10.1 µM,0.57 µM,1.81 µM,4.34 µM,1.66 µM,4.58 µM,12.3 µM,15.9 µM,2.5 µM,4.65 µM
